The record followed here is patent US12344606B2, “Next-generation modulators of stimulator of interferon genes (STING)” (RYVU THERAPEUTICS S.A., priority 2019, dated 2025).

In experiment [1] the test system is interferon regulatory factor (IRF) pathway in THP-1 dual cells. The experiment can be described thus: THP-1 Dual reporter assay, IRF pathway (luciferase). The class given is cell-based. The following applies: Homo sapiens, THP1-Dual; 18 h stimulation, luminescence. The method, then: (§1) Compounds of the present invention were tested for their activity using THP-1 dual cells (Invivogen, cat no. thpd-nfis) allowing for simultaneous study of NF-κB pathway and the interferon regulatory factor (IRF) pathway. THP-1 dual cells contain luciferase reporter gene under the control of an ISG54 (interferon-stimulated gene) minimal promoter in conjunction with five interferon-stimulated response elements and a secreted embryonic alkaline phosphatase reporter gene under the control an IFN (interferon)-β minimal promoter fused to five copies of the NF-κB consensus transcriptional response element with three copies of the c-Rel binding site. Following 18 h of stimulation with STING agonist, medium was collected and transferred onto fresh cell culture plate. To verify activity of the IRF pathway, luminescence activity was measured with standard laboratory plate reader immediately after addition 10 μl of the medium to 50 μl (or 40 μl) of luminescence reagent (Invivogen, cat. No. rep-qlc2). To verify activity of NF-κB pathway, 20 μl (or 10 μl) of the medium was mixed with 80 μl of a detection medium (Invivogen, cat. No. rep-qb2) and incubated for 2 hours (or 1 hour) at 37° C. in a humidified atmosphere containing 5% CO2. Next, absorbance at 630 nm (or 655 nm) was recorded using standard laboratory plate reader.
For orientation: In a reporter assay the amount or activity of a reporter protein is the signal.

For a further experiment, the target named is human STING (Homo sapiens, UniProt Q86WV6). The experiment can be described thus: Fluorescence Thermal Shift assay (hSTING FTS binding assay). The note with it: STING 0.1 mg/ml, 20 min preincubation, SyproOrange. The method, then: Compounds of the present invention were tested for binding to human STING in Fluorescence Thermal Shift assay. STING was preincubated with the compounds for 20 minutes in 50 mM Hepes, 150 mM NaCl, pH 7.5 in 16 μl volume, following by adding 4 μl of SyproOrange dye dilution (ThermoFisher, cat no. S-6651). Final STING concentration was 0.1 mg/ml. Thermal unfolding was performed in Real-Time PCR QuantStudio 6 Flex System (Applied Biosystems), from 25 to 99° C., with continuous ramp mode and ramp rate 0.033° C./s. The data were analyzed using Protein Thermal Shift Software (ThermoFisher).
Chain of human STING (Q86WV6 whole entry H232R): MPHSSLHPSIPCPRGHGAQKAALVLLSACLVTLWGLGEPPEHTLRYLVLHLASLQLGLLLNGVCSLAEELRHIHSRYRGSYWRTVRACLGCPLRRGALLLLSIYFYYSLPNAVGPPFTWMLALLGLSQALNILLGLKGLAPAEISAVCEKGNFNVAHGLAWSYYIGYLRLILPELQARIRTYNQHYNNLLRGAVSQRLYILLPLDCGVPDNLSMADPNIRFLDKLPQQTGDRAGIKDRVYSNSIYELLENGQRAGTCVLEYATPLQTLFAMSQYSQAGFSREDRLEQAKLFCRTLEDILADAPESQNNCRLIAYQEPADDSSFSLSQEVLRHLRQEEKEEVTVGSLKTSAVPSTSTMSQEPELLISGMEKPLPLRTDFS

For experiment [2], the system named is NF-κB pathway in THP-1 dual cells. Kind of experiment: THP-1 Dual reporter assay, NF-κB pathway (SEAP). The experiment is classed as cell-based. The following applies: Homo sapiens, THP1-Dual; 18 h stimulation, absorbance; read-out: THP1 Dual EC50 (μM) NFkB. As to the method: as §1

The term EC50 denotes the concentration needed to bring the measured effect to its halfway point.

With `Cc1cc(CN(Cc2cn(C)c3ccccc3c2=O)[C@H]2CCCN(c3cccnc3)C2)ccn1` [Example 5, 1-methyl-3-({[(2-methylpyridin-4-yl)methyl][(3S)-1-(pyridin-3-yl)piperidin-3-yl]amino}methyl)-1,4-dihydroquinolin-4-one], the EC50 in experiment [1] and in experiment [2] was at most 1 µM in each case. For the same molecule, the “hSTING FTS binding assay (ΔT C.°)” value at human STING is given as “++ (ΔTm>10° C.)”.
With `Cc1cc(CN(Cc2cn(C3CC3)c3cc(N4CCN(C)CC4)c(F)cc3c2=O)[C@H]2CCCN(c3cccnc3)C2)ccn1` [Example 10, 1-cyclopropyl-6-fluoro-7-(4-methylpiperazin-1-yl)-3-({[(2-methylpyridin-4-yl)methyl][(3S)-1-(pyridin-3-yl)piperidin-3-yl]amino}methyl)-1,4-dihydroquinolin-4-one], the EC50 in experiment [1] and in experiment [2] was at most 1 µM in each case. Further, on human STING, the “hSTING FTS binding assay (ΔT C.°)” value is given as “++ (ΔTm>10° C.)”.
In the case of `Cc1cc(CN(Cc2cn(C)c3cc(Cl)c(F)cc3c2=O)[C@H]2CCCN(c3cccnc3)C2)ccn1` [Example 25, 7-chloro-6-fluoro-1-methyl-3-({[(2-methylpyridin-4-yl)methyl][(3S)-1-(pyridin-3-yl)piperidin-3-yl]amino}methyl)-1,4-dihydroquinolin-4-one], the EC50 in experiment [1] and in experiment [2] was at most 1 µM each time. Further, at human STING, the “hSTING FTS binding assay (ΔT C.°)” value was “++ (ΔTm>10° C.)”.
On to `COc1cc(CN(Cc2cn(C3CC3)c3cc(Cl)c(F)cc3c2=O)[C@H]2CCCN(c3cccnc3)C2)ccn1` [Example 28, 7-chloro-1-cyclopropyl-6-fluoro-3-({[(2-methoxypyridin-4-yl)methyl][(3S)-1-(pyridin-3-yl)piperidin-3-yl]amino}methyl)-1,4-dihydroquinolin-4-one], for which the EC50 in experiment [1] and in experiment [2] was at most 1 µM in each case. The “hSTING FTS binding assay (ΔT C.°)” value on human STING is reported as “++ (ΔTm>10° C.)”.
`Cc1cc(CN(Cc2cn(C)c3ccccc3c2=O)[C@H]2CCCN(c3ncc(Br)cn3)C2)ccn1` [Example 32, 3-({[(3S)-1-(5-bromopyrimidin-2-yl)piperidin-3-yl][(2-methylpyridin-4-yl)methyl]amino}methyl)-1-methyl-1,4-dihydroquinolin-4-one]: the concentration for a half-maximal effect (EC50) in experiment [1] and in experiment [2] was 1 to 10 µM each time. Further, the “hSTING FTS binding assay (ΔT C.°)” value on human STING was “+ (ΔTm<10° C.)”.
On to `Cc1cc(CN(Cc2cn(C)c3ccccc3c2=O)[C@@H]2CN(c3cccnc3)CC[C@H]2O)ccn1` [Example 24, 3-({[(3R,4R)-4-hydroxy-1-(pyridin-3-yl)piperidin-3-yl][(2-methylpyridin-4-yl)methyl]amino}methyl)-1-methyl-1,4-dihydroquinolin-4-one], for which the EC50 in experiment [1] and in experiment [2] was at least 10 µM throughout. Also, the “hSTING FTS binding assay (ΔT C.°)” value on human STING is on record as “+ (ΔTm<10° C.)”.
Consider `COc1cc(N2CCC[C@H](N(Cc3ccnc(C)c3)Cc3cn(C)c4ccccc4c3=O)C2)ccn1` [Example 20, 3-({[(3S)-1-(2-methoxypyridin-4-yl)piperidin-3-yl][(2-methylpyridin-4-yl)methyl]amino}methyl)-1-methyl-1,4-dihydroquinolin-4-one], for which the EC50 in experiment [1] and in experiment [2] was at least 10 µM throughout. Moreover, on human STING, the “hSTING FTS binding assay (ΔT C.°)” value is “+ (ΔTm<10° C.)”.
Consider `Cc1ccc(N2CCC[C@H](N(Cc3ccnc(C)c3)Cc3cn(C)c4cc(Br)ccc4c3=O)C2)cn1` [Example 37, 7-bromo-1-methyl-3-({[(3S)-1-(6-methylpyridin-3-yl)piperidin-3-yl][(2-methylpyridin-4-yl)methyl]amino}methyl)-1,4-dihydroquinolin-4-one], for which the EC50 in experiment [1] and in experiment [2] was at most 1 µM throughout. The “hSTING FTS binding assay (ΔT C.°)” value at human STING was “++ (ΔTm>10° C.)”.
As for `CCc1cc(CN(Cc2cn(C)c3ccccc3c2=O)C2CCCN(c3cccnc3)C2)ccn1` (stereo not drawn) [Example 21, 3-({[(2-ethylpyridin-4-yl)methyl][1-(pyridin-3-yl)piperidin-3-yl]amino}methyl)-1-methyl-1,4-dihydroquinolin-4-one], the EC50 in experiment [1] and in experiment [2] was at least 10 µM in each case. For the same molecule, the “hSTING FTS binding assay (ΔT C.°)” value at human STING is given as “+ (ΔTm<10° C.)”.
On to `COc1ncc(N2CCC[C@H](N(Cc3ccnc(C)c3)Cc3cn(C)c4ccccc4c3=O)C2)cn1` [Example 8, 3-({[(3S)-1-(2-methoxypyrimidin-5-yl)piperidin-3-yl][(2-methylpyridin-4-yl)methyl]amino}methyl)-1-methyl-1,4-dihydroquinolin-4-one], for which the EC50 in experiment [1] and in experiment [2] was at least 10 µM each time. In addition, at human STING, the “hSTING FTS binding assay (ΔT C.°)” value is “+ (ΔTm<10° C.)”.
Consider `Cc1ccc(N2CCC[C@H](N(Cc3ccnc(C)c3)Cc3cn(CC(=O)O)c4ccccc4c3=O)C2)cn1` [Example 51, 2-[3-({[(3S)-1-(6-Methylpyridin-3-yl)piperidin-3-yl][(2-methylpyridin-4-yl)methyl]amino}methyl)-4-oxo-1,4-dihydroquinolin-1-yl]acetic acid], for which the EC50 in experiment [1] and in experiment [2] was at least 10 µM each time. Besides, at human STING, the “hSTING FTS binding assay (ΔT C.°)” value is reported as “++ (ΔTm>10° C.)”.
With `COc1cc(CN(Cc2cn(C3CC3)c3cc(F)c(F)cc3c2=O)[C@H]2CCCN(c3ccc(C)nc3)C2)ccn1` [Example 31, 1-cyclopropyl-6,7-difluoro-3-({[(2-methoxypyridin-4-yl)methyl][(3S)-1-(6-methylpyridin-3-yl)piperidin-3-yl]amino}methyl)-1,4-dihydroquinolin-4-one], the EC50 in experiment [1] and in experiment [2] was at most 1 µM in each case. The “hSTING FTS binding assay (ΔT C.°)” value at human STING is “++ (ΔTm>10° C.)”.
As for `Cc1cc(CN(Cc2cn(C)c3ccccc3c2=O)[C@H]2C[C@H](F)CN(c3cccnc3)C2)ccn1` [Example 26, 3-({[(3S,5S)-5-fluoro-1-(pyridin-3-yl)piperidin-3-yl][(2-methylpyridin-4-yl)methyl]amino}methyl)-1-methyl-1,4-dihydroquinolin-4-one], the EC50 in experiment [1] and in experiment [2] was at most 1 µM throughout. Further, at human STING, the “hSTING FTS binding assay (ΔT C.°)” value is on record as “++ (ΔTm>10° C.)”.
With `Cc1ccc(N2CCC[C@H](N(Cc3ccnc(C)c3)Cc3cn(C)c4cc(N5CCNCC5=O)ccc4c3=O)C2)cn1` [Example 49, 1-methyl-3-({[(3S)-1-(6-methylpyridin-3-yl)piperidin-3-yl][(2-methylpyridin-4-yl)methyl]amino}methyl)-7-(2-oxopiperazin-1-yl)-1,4-dihydroquinolin-4-one], the EC50 in experiment [1] and in experiment [2] was at least 10 µM each time. In addition, the “hSTING FTS binding assay (ΔT C.°)” value at human STING was “+ (ΔTm<10° C.)”.
`COc1cc(CN(Cc2cn(C)c3ccccc3c2=O)C2CCCN(c3cnccn3)C2)ccn1` (stereo not drawn) [Example 4, 3-({[(2-methoxypyridin-4-yl)methyl][1-(pyrazin-2-yl)piperidin-3-yl]amino}methyl)-1-methyl-1,4-dihydroquinolin-4-one]: the EC50 in experiment [1] and in experiment [2] was 1 to 10 µM each time. For the same molecule, on human STING, the “hSTING FTS binding assay (ΔT C.°)” value is given as “+ (ΔTm<10° C.)”.
`Cc1cc(CN(Cc2cn(C)c3cc(Br)ccc3c2=O)[C@H]2CCCN(c3cccnc3)C2)ccn1` [Example 23, 7-bromo-1-methyl-3-({[(2-methylpyridin-4-yl)methyl][(3S)-1-(pyridin-3-yl)piperidin-3-yl]amino}methyl)-1,4-dihydroquinolin-4-one]: the EC50 in experiment [1] and in experiment [2] was at most 1 µM throughout. In addition, the “hSTING FTS binding assay (ΔT C.°)” value on human STING was “++ (ΔTm>10° C.)”.
